This note sets out measurements from patent US20140315933A1, “CHEMICAL COMPOUNDS” (Pfizer Limited, priority 2013, published 2014).

Molecules are shown by their SMILES. pIC50: −log10 of the molar value.

T1 sequence (Q96S37 with tags, fused parts or gaps): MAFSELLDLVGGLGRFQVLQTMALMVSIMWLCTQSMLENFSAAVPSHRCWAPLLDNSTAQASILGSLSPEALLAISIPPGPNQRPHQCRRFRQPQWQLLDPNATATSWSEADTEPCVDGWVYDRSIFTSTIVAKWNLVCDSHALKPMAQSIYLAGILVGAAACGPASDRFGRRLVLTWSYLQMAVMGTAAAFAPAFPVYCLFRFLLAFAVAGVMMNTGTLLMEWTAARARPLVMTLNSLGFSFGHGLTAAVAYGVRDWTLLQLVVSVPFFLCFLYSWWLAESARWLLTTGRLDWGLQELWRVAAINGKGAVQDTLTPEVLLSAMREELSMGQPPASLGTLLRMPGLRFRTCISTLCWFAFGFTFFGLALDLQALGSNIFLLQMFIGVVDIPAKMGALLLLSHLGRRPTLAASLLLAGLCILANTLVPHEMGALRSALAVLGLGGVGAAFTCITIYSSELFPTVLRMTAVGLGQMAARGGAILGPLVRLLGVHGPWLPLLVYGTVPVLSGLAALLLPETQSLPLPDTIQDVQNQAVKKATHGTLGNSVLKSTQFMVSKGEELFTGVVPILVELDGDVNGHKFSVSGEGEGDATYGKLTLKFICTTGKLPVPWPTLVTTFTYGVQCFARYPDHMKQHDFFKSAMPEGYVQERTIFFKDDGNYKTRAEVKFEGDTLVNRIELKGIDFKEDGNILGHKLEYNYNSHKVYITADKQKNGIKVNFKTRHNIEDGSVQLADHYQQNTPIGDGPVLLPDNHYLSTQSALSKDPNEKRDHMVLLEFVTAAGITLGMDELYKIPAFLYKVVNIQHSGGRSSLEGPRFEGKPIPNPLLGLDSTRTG

This assay addresses T1, URAT-1 transporter (Homo sapiens, UniProt Q96S37).
T1 construct: expressed in transfected cells
The assay is described as follows: URAT-1 inhibitor activity: [14C]-uric acid uptake into CHO-URAT1(L)GFP#8 (CHO#8) cells, scintillation proximity. The format is cell-based. A digest of the protocol:
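CHO cells stably expressing human URAT1 long isoform C-terminally fused to eGFP, preincubated 1 hour in chloride-containing buffer, then 15 minutes with compound (0–10 μM, 0.25% DMSO) in chloride-free buffer pH 7.4. [14C]-uric acid at 30 nM final added; uptake read by scintillation proximity after three hours at room temperature, dark.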
(In general: Scintillation proximity formats need no separation of bound from free tracer.)
`N#Cc1cc(S(=O)(=O)Nc2ncc(Cl)s2)ccc1Oc1ccc(Cl)cc1F` [Example 87, 4-(4-chloro-2-fluorophenoxy)-N-(5-chloro-1,3-thiazol-2-yl)-3-cyanobenzenesulfonamide]: the pIC50 (in general, the IC50 on a negative log10 scale, so that one unit is a factor of ten) was 6.38.

Regarding `N#Cc1cc(S(=O)(=O)Nc2ncc(Cl)s2)ccc1Oc1ccc(C(F)(F)F)cc1` [Example 88, N-(5-chloro-1,3-thiazol-2-yl)-3-cyano-4-[4-(trifluoromethyl)phenoxy]benzenesulfonamide], the pIC50 is < 5.17. The same measure for `N#Cc1cc(S(=O)(=O)Nc2ncc(Cl)s2)ccc1Oc1cccc(C(F)(F)F)c1` [Example 89, N-(5-chloro-1,3-thiazol-2-yl)-3-cyano-4-[3-(trifluoromethyl)phenoxy]benzenesulfonamide]: 5.55.

The compound `COc1cc(OC)c(Oc2ccc(S(=O)(=O)Nc3ncc(Cl)s3)cc2C#N)c(OC)c1` [Example 90, N-(5-chloro-1,3-thiazol-2-yl)-3-cyano-4-(2,4,6-trimethoxyphenoxy)benzenesulfonamide] gave a pIC50 of 5.78. The same measure for `N#Cc1cc(S(=O)(=O)Nc2ncc(F)s2)ccc1Oc1ccc(Cl)cc1OC(F)(F)F` [Example 91, 4-[4-chloro-2-(trifluoromethoxy)phenoxy]-3-cyano-N-(5-fluoro-1,3-thiazol-2-yl)benzenesulfonamide]: 5.58. Under `N#Cc1cc(S(=O)(=O)Nc2ncc(F)s2)ccc1Oc1ccc(Cl)cc1C(F)(F)F` [Example 92, 4-[4-chloro-2-(trifluoromethyl)phenoxy]-3-cyano-N-(5-fluoro-1,3-thiazol-2-yl)benzenesulfonamide] stands < 5.10. Under `Cc1cc(F)ccc1Oc1ccc(S(=O)(=O)Nc2ncc(F)s2)cc1C#N` [Example 93, 3-cyano-4-(4-fluoro-2-methylphenoxy)-N-(5-fluoro-1,3-thiazol-2-yl)benzenesulfonamide] stands < 5.79.

The compound `N#Cc1cc(S(=O)(=O)Nc2ncc(F)s2)ccc1Oc1c(F)cccc1F` [Example 94, 3-cyano-4-(2,6-difluorophenoxy)-N-(5-fluoro-1,3-thiazol-2-yl)benzenesulfonamide] showed a pIC50 of 6.21. Under `CCc1ccc(Oc2ccc(S(=O)(=O)Nc3ncc(F)s3)cc2C#N)cc1` [Example 95, 3-cyano-4-(4-ethylphenoxy)-N-(5-fluoro-1,3-thiazol-2-yl)benzenesulfonamide] stands < 5.13. Compound `N#Cc1cc(S(=O)(=O)Nc2ncc(F)s2)ccc1Oc1ccccc1Cl` [Example 96, 4-(2-chlorophenoxy)-3-cyano-N-(5-fluoro-1,3-thiazol-2-yl)benzenesulfonamide] showed a pIC50 of 6.17. Under `CC(C)c1ccccc1Oc1ccc(S(=O)(=O)Nc2ncc(F)s2)cc1C#N` [Example 97, 3-cyano-N-(5-fluoro-1,3-thiazol-2-yl)-4-[2-(propan-2-yl)phenoxy]benzenesulfonamide] stands 5.93; under `N#Cc1cc(S(=O)(=O)Nc2ncc(F)s2)ccc1Oc1ccc(Cl)cc1` [Example 98, 4-(4-chlorophenoxy)-3-cyano-N-(5-fluoro-1,3-thiazol-2-yl)benzenesulfonamide], < 5.77. The same measure for `CCc1cccc(Oc2ccc(S(=O)(=O)Nc3ncc(F)s3)cc2C#N)c1` [Example 99, 3-cyano-4-(3-ethylphenoxy)-N-(5-fluoro-1,3-thiazol-2-yl)benzenesulfonamide]: 5.79. In turn, `CCOc1cccc(Oc2ccc(S(=O)(=O)Nc3ncc(F)s3)cc2C#N)c1` [Example 100, 3-cyano-4-(3-ethoxyphenoxy)-N-(5-fluoro-1,3-thiazol-2-yl)benzenesulfonamide] showed a pIC50 of 6.26. The same measure for `Cc1ccc(Oc2ccc(S(=O)(=O)Nc3ncc(F)s3)cc2C#N)c(C)c1` [Example 101, 3-cyano-4-(2,4-dimethylphenoxy)-N-(5-fluoro-1,3-thiazol-2-yl)benzenesulfonamide]: 5.75. The compound `N#Cc1cc(S(=O)(=O)Nc2ncc(F)s2)ccc1Oc1cc(F)ccc1F` [Example 102, 3-cyano-4-(2,5-difluorophenoxy)-N-(5-fluoro-1,3-thiazol-2-yl)benzenesulfonamide] had a pIC50 of 5.85.
